Series [1] in a line: Pharmacokinetic evaluation in rats. In kind it is in vivo. The conditions noted are these: plasma; Rat PK, oral (PO), 10 mg/kg. How it is done:
Rats were used as test animals, and the plasma drug concentrations at different time points after gavage administration of the test sample were measured. The pharmacokinetic behavior of the compound of the present disclosure in rats was studied to evaluate its metabolic characteristics. For each experimental group, 3 rats with similar body weights were selected and orally administered a single dose of 10 mg/kg. […] Pharmacokinetic parameter calculations were performed using metabolic kinetic data analysis software WinNonlin 7.0 by non-compartmental analysis (NCA) based on plasma concentration data.
A test sample with a final preparation concentration (based on the content of the compound of formula I) of 1.0 mg/mL was prepared for oral administration, using a 0.5% CMC Na aqueous solution as the preparation solvent.
Administration: After overnight fasting (12 hours), rats were administered by gavage at a dose of 10 mg/kg.
The blood samples were placed in heparinized sample tubes, and centrifuged at 4°C and 3500 rpm for 10 minutes to separate plasma, which was then stored at -20°C. Food was provided 2 hours after administration.
Determination of the content of the compound to be tested in rat plasma after gavage administration: After thawing plasma samples at room temperature, 300 µL of internal standard (terfenadine 200 ng/mL, acetonitrile) was added to each sample. The mixtures were vortexed for 1 min and then centrifuged at 4°C and 15400 rpm for 10 min. The supernatant was diluted 20-fold with 80% acetonitrile-water and then injected for LC/MS/MS analysis.

A short description of series [2]: Purity test after storage in an oven at set temperature (stability). It counts as physicochemical. The following applies: 80 °C for 30 days (footnote c).
Series [3] is described as follows: Grindability test (mortar, XRPD detection). It counts as physicochemical. How it is done:
Grindability test: An appropriate amount of the crystal compound to be tested was placed in a mortar and ground for 2 min and 5 min, followed by XRPD detection.

A short description of series [4]: Purity test after storage in an oven at set temperature (stability). In kind it is physicochemical. As for the experimental part: Purity test: The sample to be tested was dissolved in a methanol solution, and the sample purity was measured by HPLC.
Series [5] is described as follows: Hygroscopicity test method (DVS). The following applies: 80% RH, 25°C, DVS. In kind it is physicochemical. As for the experimental part: Hygroscopicity test method (DVS): The hygroscopicity of the sample was measured using SMS Intrinsic Plus. The sample was weighed into a sample pan, equilibrated at 25°C until dm/dt was less than 0.002%, and then measured in time mode. The humidity was adjusted from 60%-90%-0%-90%-0% RH, with increments of 10% RH per step, and each humidity level was maintained for 1 hour.

Series [6] can be described thus: Solubility test. In kind it is physicochemical. The following applies: thermodynamic from solid, water, 37°C, HPLC. How it is done:
Approximately 10 mg of the crystal compound was weighed and added to 3 mL of water, shaken, and maintained at 37°C.

The nature of series [7]: Compressibility test (tableting, XRPD detection). In kind it is physicochemical. The conditions noted are these: compressed into tablets.

On to `O=C(O)c1ccc2nc(CN3CCC(c4ccccc4OCc4ccc(Cl)cc4F)CC3)n(C[C@@H]3CCO3)c2c1` [Compound of formula I], for which, in series [1], the total exposure AUC(0-inf) (as a rule, the area under the concentration-time curve extrapolated to infinity) amounted to 401 ng·h/mL; the AUC(0-t) (as a rule, exposure summed from dosing to a finite time, without extrapolation to infinity) stood at 396 ng·h/mL; the Cmax (commonly the highest concentration seen after dosing) worked out at 154 ng/mL; the Tmax (as a rule, the time at which the peak concentration occurs) was 40 min. In series [1], the half-life (as a rule, how long it takes for the measured level to halve) was 65.4 min. Further, the “Solid form after 80°C (result after 30 days)” value in series [2] is recorded as “amorphous”. In addition, the “Grindability (mortar 5 min), purity change” value in series [3] stood at 6.5%. Also, the “Grindability (mortar 5 min), solid form” value in series [3] (XRPD) was “Amorphous”. Also, the “Purity, 2 to 8°C (6 months)” value in series [4] (2 to 8°C, 6 months, HPLC) amounted to 82.49%. Moreover, the “Purity, Onset” value in series [4] (Onset (before storage), HPLC) stood at 99.15%. Further, the Thermal stability result in series [4] (conclusion from Table 13, degrades under heating or room temperature) is reported as “poor thermal stability”. Besides, the “Purity, 60°C (7 day)” value in series [4] (oven, 60°C, 7 day, HPLC) is recorded as 99.15%. Moreover, in series [4] (oven, 80 °C for 30 days (footnote c), HPLC), the “Purity, 80°C (result after 30 days)” value was 70.18%. Moreover, in series [5], the “Hygroscopicity (80% RH)” value was found to be 0.25% and the “Hygroscopicity (80% RH), description in words” value fell in the range of 10 to 90% RH linear reversible. Further, the solubility (as a rule, the dissolved amount per volume that the medium holds) at 24 h in series [6] is below 1 µg/mL. Also, the “Compressibility (20 Mp)” value in series [7] was “Significant reduction in crystallinity, amorphization”.

The record behind these values is patent EP4700023A1, “GLP-1R RECEPTOR AGONIST COMPOUND SALT AND CRYSTAL FORM THEREOF, PREPARATION METHOD THEREFOR AND USE THEREOF” (Chengdu Vincentage Pharma Co., Ltd., priority 2023, dated 2024).
